Measured values taken from patent US11524021B2, “Use of ginsenoside M1 for manufacturing medicament for treating oral cancer” (priority 2018, dated 2022).

Legend:
[1] = tested on: normal human gingival epithelioid cell line SG; assay: Toxicity to normal human gingival epithelioid SG cells, Trypan blue exclusion; type: cell-based; conditions: 20 μg/ml, 24 h
Description: (§1) Human normal human gingival epithelioid cell line SG cells were incubated for 24 h with ginsenoside M1 (5˜20 μg/ml), ginsenoside Rh2 (5˜20 μg/ml) or vehicle (0.1% DMSO). The live cell numbers were counted by Trypan blue exclusion method. The data were expressed as mean±SD; n=3. ** and *** indicate a significant difference at the level of p<0.01 and p<0.001, respectively, compared to vehicle-control cells. (One-way ANOVA with Dunnett's multiple comparisons test).
as §1, with “Plate 5×10^5” for “Human”, “SG per 6-cm dish in 2 ml of culture medium and were grown overnight at 37° C. in a 5% CO2 incubator. The” for “SG”, “vehicle. Each group contains a final DMSO concentration of 0.1%. Thereafter, the” for “vehicle (0.1% DMSO). The live”, “method. […]” for “method.”

[2] = Body weight of SAS xenograft mice; type: in vivo, BALB/c nude (nu/nu) mice; conditions: 5 successive days
Description: FIGS. 6A-6C show oral administration of ginsenoside M1 reduced human oral cancer growth in mice. Human oral cancer cell line SAS cells Xenografts mice with tumor size around 40˜60 mm^3 were given a daily oral administration of either ginsenoside M1 (30-90 mg/kg) or vehicle for 5 successive days. (FIG. 6A) The tumor volume was determined by measurement of the length (L) and width (W) of the tumor and calculated as tumor volume (mm3)=(L×W^2)/2. (FIG. 6B) The tumor weight was measured after the mice were scarified. (FIG. 6C) The body weight of mice was recorded. The data were expressed as mean±SD; n=6. ** and *** indicate a significant difference at the level of p<0.01 and p<0.001, respectively, compared to vehicle-control mice. […]
FIGS. 7A-7C show subcutaneous (SC) injection of ginsenoside M1 reduced human oral cancer growth in mice. […] (FIG. 7A) The tumor volume was determined by measurement of the length (L) and width (W) of the tumor and calculated as tumor volume (mm3)=(L×W^2)/2. (FIG. 7B) The tumor weight was measured after the mice were scarified. (FIG. 7C) The body weight of mice was recorded. The data were expressed as mean±SD; n=6. ** indicates a significant difference at the level of p<0.01, compared to vehicle-control mice. […]
To evaluate the anti-cancer activity of ginsenoside M1 in vivo, human oral cancer xenografts were used. […] The TV on day n (TVn) was calculated as TV (mm3)=(L×W^2)/2. […]

CC(C)=CCC[C@](C)(O[C@@H]1OC(CO)[C@@H](O)[C@@H](O)C1O)[C@H]1CC[C@]2(C)C1[C@H](O)CC1[C@@]3(C)CC[C@H](O)C(C)(C)C3CC[C@]12C (stereo partly drawn) [ginsenoside M1, 20-O-β-D-glucopyranosyl-20(S)-protopanaxadiol]
reduction of SG cell number compared to control cells [1]: 50%
body weight of mice ([2]; SC injection 20 mg/kg daily): did not significantly affect
body weight of mice ([2]; oral 30-90 mg/kg daily): did not significantly affect
